Earlier results, collected in patent publication US11185540B2, “Extended release compositions of opioid antagonists and phosphodiesterase 5 inhibitors” (Pardon My Scotch, LLC, priority 2017, dated 2021).

Tests used:
[1] = in vivo
PDE9 = PDE9 (Homo sapiens, UniProt O76083)
PDE5 = PDE5 (Homo sapiens, UniProt O76074)

Chain of PDE9 (O76083 whole entry): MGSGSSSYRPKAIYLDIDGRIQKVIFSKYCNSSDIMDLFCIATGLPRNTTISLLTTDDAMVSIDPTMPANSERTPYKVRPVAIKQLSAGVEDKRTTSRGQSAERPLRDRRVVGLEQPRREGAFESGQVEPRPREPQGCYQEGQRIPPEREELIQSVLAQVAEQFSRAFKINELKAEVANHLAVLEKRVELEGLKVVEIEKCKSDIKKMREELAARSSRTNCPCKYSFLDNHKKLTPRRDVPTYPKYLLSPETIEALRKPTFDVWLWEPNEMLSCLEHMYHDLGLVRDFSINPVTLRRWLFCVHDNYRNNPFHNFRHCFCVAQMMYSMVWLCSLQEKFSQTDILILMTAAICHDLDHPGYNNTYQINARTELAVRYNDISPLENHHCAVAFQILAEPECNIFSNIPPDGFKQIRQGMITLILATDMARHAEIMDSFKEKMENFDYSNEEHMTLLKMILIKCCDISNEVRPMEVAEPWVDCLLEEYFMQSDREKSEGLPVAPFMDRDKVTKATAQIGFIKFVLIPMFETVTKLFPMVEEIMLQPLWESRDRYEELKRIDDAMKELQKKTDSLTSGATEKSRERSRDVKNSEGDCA

**Q.** What does the source list for CCCc1nn(C)c2c(=O)[nH]c(-c3cc(S(=O)(=O)N4CCN(C)CC4)ccc3OCC)nc12 [sildenafil]?
**A.** Plasma half-life [1]: 5 to 7 h; Inhibition of PDE9 (PDE9): inhibit; Inhibition of PDE6 (PDE6): inhibit

**Q.** For CN1CC(=O)N2[C@H](c3ccc4c(c3)OCO4)c3[nH]c4ccccc4c3C[C@@H]2C1=O [tadalafil, pyrazino[1′,2′:1,6]pyrido[3,4-b]indole-1,4-dione, 6-(1,3-benzodioxol-5-yl)-2,3,6,7,12,12a-hexahydro-2-methyl-, (6R,12aR)-], which “Inhibition of PDE5” value (PDE5) is on record?
**A.** inhibit

**Q.** For CCCc1nc(C)c2c(=O)[nH]c(-c3cc(S(=O)(=O)N4CCN(CC)CC4)ccc3OCC)nn12 [vardenafil], which Plasma half-life [1] is on record?
**A.** 5 to 7 h
